From paper PMC449707 (BMC Pharmacology, 2004)

Tested on: whole bone marrow cells
Assay: Fibroblastic colony forming unit
Format: cell-based, rat
Details: for effect on colony number of co-treatment with exogenous PGE2: 10 μM PDE inhibitor plus PGE2 as low as 0.1 nM; for effect on colony number, agent alone: 10 μM, CFU-f assay, no exogenous PGE2

Row | SMILES | effect on colony number of co-treatment with exogenous PGE2 | effect on colony number, agent alone
1 | CC(C)Cn1c(=O)n(C)c(=O)c2[nH]cnc21 [IBMX, isobutylmethylxanthine] | almost maximal responses | significant stimulation in colony number
2 | COc1ccc(C2CNC(=O)C2)cc1OC1CCCC1 (stereo not shown) [rolipram] | almost maximal responses | significant stimulation in colony number
